# Test system: HCV
# Assay: Yield of HCV (HCV RNA level) in culture supernatant of HCV cDNA-introduced IMY42-5 cells, real-time detection RT-PCR
# Type: cell-based, hepatitis C virus
# Conditions: ribavirin 0, 25, 50, 100, 200 μM added simultaneously with Tam, cultured for 2 days (FIG. 10)
# Method: IMY42-5 cells were prepared by incorporating into IMY-N9 cells, pCALN/HCV RBZ and CAG-Mer-Cre-Mer (Nucleic Acids Res., 1996, 24(4), 543-548) that expresses active Cre recombinant enzyme by adding tamoxifen co-expressed constitutively therein. When tamoxifen acts on the cells, the stuffer region of pCALN/HCV RBZ was looped out and HCV cDNA was expressed.
# IMY42-5 cells (2.5×10^5/ml) were inoculated, 100 μl/well in a 96-well plate, and then cultured overnight at 37° C. under 5% CO2 atmosphere. Then 4-hydroxi-tamoxifen (Tam) was added at a concentration of 100 nM. On the next day and 3 days after the addition of Tam, the culture supernatant was collected. RNA in the culture supernatant was extracted using ISOGEN-LS (Wako Pure Chemical Industries, Ltd.), and then HCV RNA levels were quantified by the Real-time detection RT-PCR (Takeuchi T. et al; Gastroenterology 1999; 116: 636-642) method.
# CsA (100, 10, 1 and 0 nM) was added simultaneously with the addition of Tam to IMY42-5 cells. The cells were cultured for 3 days, and then HCV RNA levels in the culture supernatant was measured by Real-time detection RT-PCR.
# Ribavirin (0, 25, 50, 100, 200 μM) was added simultaneously with the addition of Tam to IMY42-5 cells. The cells were cultured for 2 days, and then HCV RNA levels in the culture supernatant were measured.
structure (smiles),measurement,value
"NC(=O)c1ncn([C@@H]2O[C@H](CO)[C@@H](O)[C@H]2O)n1 [Ribavirin, ribavirin]",HCV RNA levels in the culture supernatant (yield of virus),no decrease

# — US20040101827A1, “Methods of infection with hepatitis c virus” (priority 2000, published 2004)
